According to US12338296B2, “Peptides and compounds that bind to elongation initiation factor 4E” (AGENCY FOR SCIENCE, TECHNOLOGY AND RESEARCH, priority 2019, dated 2025):
Entries after “also recorded” stand apart in the source; their conditions may differ.

Assays:
[1] = target: T1, eIF4E (Homo sapiens, UniProt P06730); experiment: Tryptophan quenching experiments; type: binding; conditions: 1 μM eIF4E, 0.01-20 μM titrant, excitation 290 nm, emission 355 nm; FIG. 2
T1 construct: made in house; Plasmid and cells were provided by Cyclacel Ltd., Dundee
Method: Tryptophan Quenching Experiments
Tryptophan quenching experiments were performed using an EnVision® multiplate reader with black matte 96-well plates. […] Concentrations tested ranged from 0.01-20 μM. Samples were excited with UV light at 290 nm to minimise contribution from tyrosine fluorescence. Tryptophan was measured at an emission wavelength of 355 nm.

[2] = target: T2, eIF4E cap-binding site (Homo sapiens, UniProt P06730); experiment: Competitive fluorescence polarization, cap analogue binding assessment (FAM labelled m7GTP); conditions: eIF4E 250 nM, labelled m7GTP 50 nM; FIG. 1B; listed as EE-02
T2 construct: made in house; Plasmid and cells were provided by Cyclacel Ltd., Dundee
Method: Apparent Kd values were determined by fitting the experimental data to the equations shown below:
[formula] [L]st and [L]t denote labeled ligand and total unlabeled ligand input concentrations, respectively. Kd2 is the dissociation constant of the interaction between the unlabelled ligand and the protein. In all competitive types of experiments, it is assumed that [P]t>[L]st, otherwise considerable amounts of free labeled ligand would always be present and would interfere with measurements. Kd1 is the apparent Kd for the labeled peptide used in the respective experiment. […] Readings were carried out with a Envision Multi-label Reader (PerkinElmer). Experiments were carried out in PBS (2.7 mM KCl, 137 mM NaCl, 10 mM NaHPO4 and 2 mM KHPO4 (pH 7.4)), 3% DMSO (v/v) and 0.1% Tween 20 buffer. All titrations were carried out in triplicate. Curve-fitting was carried out using Prism 4.0 (GraphPad). […]
From these initial results it was predicted the new peptide motif might interact with eIF4E either via a different binding pose at the eIF4G binding site, or at the cap-binding site or elsewhere on the protein. The binding site was initially delineated on eIF4E by using two types of competitive fluorescence polarization experiments, one of which utilised a FAM labelled cap-analogue and the other that used a FAM labelled eIF4G1 derived peptide (FIG. 1).

[3] = target: T1, eIF4E; experiment: Fluorescence anisotropy direct titration of eIF4E against FAM labelled tracers; conditions: 50 nM tracer, eIF4E titrated, 1:1 binding model; read-out: Kd for interaction of labelled tracer with eIF4E
Source text: Fluorescence Anisotropy Assays and Kd Determination.
Both were used later for subsequent Kd determination in competition experiments.

T2 sequence (P06730 whole entry): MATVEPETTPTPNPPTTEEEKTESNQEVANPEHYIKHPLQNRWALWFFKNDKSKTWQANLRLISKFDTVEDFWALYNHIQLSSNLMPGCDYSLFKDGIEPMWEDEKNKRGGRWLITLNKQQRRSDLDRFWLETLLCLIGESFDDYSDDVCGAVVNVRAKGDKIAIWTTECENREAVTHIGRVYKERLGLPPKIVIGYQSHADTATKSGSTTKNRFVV
T1 sequence (P06730 whole entry): as above

| Kd [3] [nM] | Compound | tryptophan quenching of eIF4E [1] | displacement of fluorescently labelled m7GTP from eIF4E [2] |
| --- | --- | --- | --- |
| – | CSCC[C@@H]1NC(=O)[C@H](CCC(=O)O)NC(=O)[C@@H](NC(=O)[C@H](C)N)CSSC[C@@H](C(=O)NCC(N)=O)NC(=O)[C@H](CC(=O)O)NC(=O)[C@H](CCC(N)=O)NC(=O)[C@H](Cc2ccccc2)NC(=O)[C@H](Cc2ccccc2)NC(=O)CNC1=O [EE-2] | significantly different profile to m7GTP/m7GDP | most potent peptide out of the set identified; also recorded: can displace fluorescently labelled m7GTP |
| 149 | m^7GTP-6-FAM | – | – |
